Results on six molecules are retold here after article PMC3000476, “Amino acid derivatives are substrates or non-transported inhibitors of the amino acid transporter PAT2 (slc36a2)” (Biochimica et Biophysica Acta, 2011).

For assay [1], the target named is T1, PAT2 (Rattus norvegicus, UniProt Q8K415).
T1 construct: gene Slc36a2
The experiment in a line: inhibition of L-[3H]proline uptake in PAT2-expressing Xenopus oocytes; TEVC; no trans-stimulation of efflux. Type of assay: cell-based.

Assay [2] deals with T1, PAT2. Nature of the assay: competition with L-[3H]proline uptake in PAT2-expressing Xenopus oocytes; TEVC. Type of assay: cell-based.
Assay [3] addresses T1, PAT2.
Assay [4] concerns the target T1, PAT2. The experiment in a line: inhibition of L-proline-induced current (TEVC) in PAT2-expressing oocytes; also uptake inhibition IC50 […]. Format: cell-based.
Assay [5] concerns the target T1, PAT2. Nature of the assay: L-[3H]pipecolic acid uptake and TEVC competition with glycine in PAT2-expressing oocytes. Type of assay: cell-based.
For assay [6], the target named is T1, PAT2. The experiment in a line: competition with L-[3H]proline uptake in PAT2-expressing Xenopus oocytes. Type of assay: cell-based.

T1 sequence (Q8K415 whole entry): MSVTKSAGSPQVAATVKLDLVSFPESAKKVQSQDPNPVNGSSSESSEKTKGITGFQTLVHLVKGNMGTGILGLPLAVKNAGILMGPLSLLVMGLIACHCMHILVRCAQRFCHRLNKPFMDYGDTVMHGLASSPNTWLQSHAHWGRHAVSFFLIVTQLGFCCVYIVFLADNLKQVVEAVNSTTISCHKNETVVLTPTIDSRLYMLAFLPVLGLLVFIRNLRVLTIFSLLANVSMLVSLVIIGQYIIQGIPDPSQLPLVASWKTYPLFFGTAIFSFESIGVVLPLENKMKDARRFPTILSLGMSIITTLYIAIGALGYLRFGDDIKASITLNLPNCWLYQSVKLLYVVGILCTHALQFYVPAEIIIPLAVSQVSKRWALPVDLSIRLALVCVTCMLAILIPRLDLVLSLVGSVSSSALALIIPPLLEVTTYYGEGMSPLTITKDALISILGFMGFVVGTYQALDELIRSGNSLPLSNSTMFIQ

For the molecule `N[C@@H](Cc1c[nH]c2ccc(O)cc12)C(=O)O` [OH-Trp, 5-hydroxy-L-tryptophan], at PAT2 [1], the concentration for half-maximal inhibition (IC50) is 1600 ± 400 µM.
The molecule `O=C(O)[C@H]1NCC[C@@H]1O` [T3HP, trans-3-hydroxy-L-proline] registered a 50% inhibitory concentration (IC50) at PAT2 [2] of 13100 ± 4200 µM.
Turning to `NCC(=O)O` [Gly, glycine], on PAT2 [3], the “[3H]glycine uptake, TEVC current and trans-stimulation of L-[3H]proline efflux i” value is reported as 934 ± 22 pmol oocyte^− 1 (40 min)^− 1.
In the case of `CC(N)(Cc1c[nH]c2ccccc12)C(=O)O` (racemic) [Me-Trp, α-methyl-D,L-tryptophan], at PAT2 [4], the 50% inhibitory concentration (IC50) came out at 2700 ± 100 µM.
With `O=C(O)[C@@H]1CCCCN1` [L-Pip, L-pipecolic acid], the “L-[3H]pipecolic acid uptake” value at PAT2 [5] is 224 ± 19 pmol oocyte^− 1 (40 min)^− 1.
On PAT2 [6], `O=C(O)[C@@H]1C[C@@H](O)CN1` [T4HP, trans-4-hydroxy-L-proline] registered a half-inhibitory concentration (IC50) of 700 ± 200 µM.

Usually IC50 stands for the concentration that gives 50% inhibition. Higher therefore signals weaker potency in that assay.
